Literature values in patent US10172902B2, “Ocular eyelid scrub composition for the treatment of demodex blepharitis” (LUNOVUS, LLC, priority 2014, dated 2019).

System: ocular Demodex
Details: solutions, suspensions, sprays, lotions, gels, pastes, cleansers, creams or ointments

## CC1=CCC(O)(C(C)C)CC1 (stereo not shown) [terpinen-4-ol]
  treating an ocular Demodex infestation or Demodex-induced blepharitis: effective
